The record followed here is ChEMBL document CHEMBL1126719, “The solution conformation of (D)Phe-Pro-containing peptides: implications on the activity of Ac-(D)Phe-Pro-boroArg-OH, a potent thrombin inhibitor” (J Med Chem, 1993).

Each structure is given as a SMILES string.

In the assay the target is Prothrombin (Homo sapiens, UniProt P00734). Description: Inhibition constant for binding with thrombin was determined.
With `CC(=O)N[C@H](Cc1ccccc1)C(=O)NCC(=O)NC(CCCN=C(N)N)B(O)O` (stereo not given in full), the Ki (commonly a dissociation constant, usually derived from enzyme kinetics or from competition with a known ligand) stood at 4.3 nM.
For `CC(=O)NCC(=O)NC(CCCN=C(N)N)B(O)O` (stereo not given) the value was 26 nM; for `CC(=O)N1CCC[C@H]1C(=O)NC(CCCN=C(N)N)B(O)O` (stereo not given in full), 3.3 nM; for `CC(C)(C)OC(=O)N[C@H](Cc1ccccc1)C(=O)N1CCC[C@H]1C(=O)NC(CCCN=C(N)N)B(O)O` (stereo not given in full), 0.004 nM.
As for `CC(C)(C)OC(=O)N[C@H](Cc1ccccc1)C(=O)NCC(=O)NC(CCCN=C(N)N)B(O)O` (stereo not given in full), the affinity corresponds to a Ki of 0.4 nM.
